Test results taken from patent US20250269031A1, “MITOCHONDRIA TARGETING QUINOLINIUM-DRUG CONJUGATES AND THEIR SELF-ASSEMBLING NANOFORMULATIONS FOR CANCER THERAPY” (THE REGENTS OF THE UNIVERSITY OF CALIFORNIA, priority 2020, published 2025).
Read-outs that look alike come from different tables or passages of the source.

Tests used:
[1] = tested on: Pancreatic cancer stem cells; assay: Sphere formation; assay type: cell-based; conditions: 5 μM, 10 days
Description: Pancreatic cancer stem cells (3000 cells per well) were mixed with matrigel and medium, and then placed in 24-well plates with pre-embedded matrigel and medium. After 24 h incubation, CSC cells were then treated with different agents as indicated and cultured for 10 days. The cells were imaged as shown in FIG. 33A and the sphere diameters were calculated by ImageJ and are plotted in FIG. 33B.

[2] = tested on: CSC spheres (with Stella cell); assay: Sphere growth, CSC spheres with Stella cell; assay type: cell-based; conditions: 5 μM
Description: Sphere growth. […] CSC cells (800 cells per well) and stella cells (400 cells per well) were plated together in 96-well low-attachment plates and incubated overnight. CSC spheres then were treated with different agents as indicated. Spheres growth was monitored by CLSM (every two days).

[3] = tested on: CSC cells; assay: Seahorse assay (oxygen consumption rate); assay type: cell-based; conditions: 24 h
Description: Seahorse assay. CSC cells (2×10^4 cells per well) were treated as indicated for 24 h. The Oxygen Consumption Rate (OCR) were measured by the Agilent Seahorse XF analyzer.

[4] = tested on: Pancreatic cancer stem cells (CSC); assay: Cell viability assay, pancreatic cancer stem cells; assay type: cell-based
Description: Cell viability assay. Pancreatic cancer stem cells (CSC, 5×10^3 cells per well) was plated in 96-well plates, incubated overnight, and then were treated with different concentrations of agents as indicated. After 72 h treatment, cell viability was quantified using the CellTiter-Glo assay Cell viability curves and the chemical structures of LM, LND, and m104 are shown in FIG. 31A and FIG. 31B.

[5] = tested on: subcutaneous OSC-3 tumor; assay: In vivo anticancer study, subcutaneous oral cancer model; design: species or system nude mice; conditions: for H&E staining of tumors: 24 h drug, then laser; for antitumor effect: with laser; for antitumor efficacy: without laser
Excerpt: (§1) Female athymic nude mice, 6-week-old, were purchased from Envigo (Indianapolis, IN, USA). All animal experiments were strictly performed in compliance with the protocol (#20265) approved by the Institutional Animal Care and Use Committee at the University of California, Davis. The subcutaneous and orthotopic tumor models were established by inoculated OSC-3 cells into both flanks (5×10^6 cells per tumor) or lower lips (1×10^6 cells per tumor) of nude mice. When the subcutaneous tumors reached about 80 mm^3 and orthotopic tumors reached about 50 mm^3, the mice started to be treated as indicated.
Laser (680 nm) treatment was conduct by a laser device within an energy of 0.2 W cm^−2 for 6 min (Shanghai Xilong Optoelectronics Technology, China). […] The drug was intratumorally injected into mice at a dose of 1 mM (10 nmol per 50 mm^3 tumor). Laser treatment was performed for a total of four times, one each on days 1, 2, 5, and 6 post-injection of drugs. The relative tumor value and body weight were recorded every two days. In subcutaneous models, the tumors in the right flank of mice were subjected to laser treatment, while the left tumors were not. In orthotopic models, all tumors were treated with the laser treatment. The temperature of tumor surface was monitored using a thermal camera (FLIR Systems, USA) immediately after laser treatment. ROS production in the tumor after light treatment was also measured using DCF-DA as an indicator. Briefly, the tumor was treated with different drugs via intratumoral injection at first. Then, the mice with tumors were treated with the laser at 1st, 2nd, 5th, and 6th day independently. After each light treatment, the mice were sacrificed immediately, and the obtained tumors were cut into small pieces and immersed in the DCF-DA solutions for 10 min. Finally, the tumors pieces were imaged by the ChemiDoc™ MP imaging system with the FITC channel. The fluorescence intensity of DCF-DA was quantified by Image J software. Mice were sacrificed after the first light treatment to obtain tumor and organs tissue for TEM, H&E, and IHC evaluation.

[6] = tested on: OSC-3 cells; assay: Cell viability assay (CellTiter-Glo), OSC-3; assay type: cell-based; conditions: for IC50: read-out: IC50 cytotoxicity; for anticancer effect: OSC-3, with light, 0.3 μM to 1 μM
Description: OSC-3, BXPC-3, AsPC-1, PANC-1, UM-UC-3, 5637, or IMR90 cells were seeded in 96-well plates at a density of 5×10^3 cells per well and were grown overnight. Cells were incubated with various concentrations of drugs for 24 h, followed washing with PBS three times, and adding 100 μL fresh medium. For light-treated groups, cells were irradiated for 30 s using a 633-nm LED array (Omnilux new-U) at a power density of 30 mW cm^−2 at room temperature and then were cultured for another 24 h in parallel with non-light treated groups. Cell viability was quantified using the CellTiter-Glo assay (Promega, USA).

[7] = tested on: OSC-3 cells; assay: Mitochondrial membrane potential assay (JC-1); assay type: cell-based; conditions: 1 μM, with light
Description: The mitochondrial membrane potential was determined using the dye JC-1 as a probe (Thermo Fisher Scientific, USA). Briefly, OSC-3 cells (2×10^4 cells per well) were treated with drugs (1 μM) for 24 h. […] JC-1 (5 μg mL^−1) was added to incubate for 20 min. Cell imaging was performed on a CLSM (Carl Zeiss, Germany). The ratio of red/green fluorescence intensity was calculated by ImageJ software.

[8] = tested on: OSC-3 cells; assay: Cell TEM study of mitochondria morphology; assay type: cell-based; conditions: 0.5 μM, 24 h
[9] = tested on: Pancreatic cancer stem cells; assay: Cell growth assay; assay type: cell-based; conditions: 2 μM
Description: Cell growth. Pancreatic cancer stem cells were plated in 6-well plates (50,000 cell per well) and treated as indicated and were counted manually every 24 h. The cell growth is plotted over time in FIG. 31C.

[10] = tested on: CSC cells; assay: Mitochondria membrane potential (JC-1), CSC; assay type: cell-based; conditions: 24 h
Description: Mitochondria membrane potential. JC-1 dye was used as an indicator of mitochondrial membrane potential. Briefly, Cells (2×10^4 cells per well) were treated as indicated for 24 h, washed and cultured with fresh medium. Then 0.5 μg/mL JC-1 was added for another 30 min incubation. Images were captured by CLSM.

[11] = tested on: Bxpc-3 and AsPc cells; assay: Cell viability, Bxpc-3 and AsPc; assay type: cell-based; conditions: 72 h treatment
Description: Cell viability. Bxpc-3 and AsPc cells (CSC, 5×10^3 cells per well) was plated in 96-well plates, incubated overnight, and then were treated with different concentrations of agents as indicated. After 72 h treatment, cell viability was quantified using the CellTiter-Glo assay.

[12] = tested on: OSC-3 tumors; assay: Intratumoral ROS production (DCF-DA, ex vivo imaging); assay type: in vivo, nude mice; conditions: laser at days 1, 2, 5, 6 post-injection
Description: Laser (680 nm) treatment was conduct by a laser device within an energy of 0.2 W cm^−2 for 6 min (Shanghai Xilong Optoelectronics Technology, China). Mice bearing subcutaneous and orthotopic tumors were randomly divided into four groups (n=6): Vehicle (PBS), DQA, PA, and PQC NFs. The drug was intratumorally injected into mice at a dose of 1 mM (10 nmol per 50 mm^3 tumor). Laser treatment was performed for a total of four times, one each on days 1, 2, 5, and 6 post-injection of drugs. The relative tumor value and body weight were recorded every two days. In subcutaneous models, the tumors in the right flank of mice were subjected to laser treatment, while the left tumors were not. In orthotopic models, all tumors were treated with the laser treatment. The temperature of tumor surface was monitored using a thermal camera (FLIR Systems, USA) immediately after laser treatment. ROS production in the tumor after light treatment was also measured using DCF-DA as an indicator. Briefly, the tumor was treated with different drugs via intratumoral injection at first. Then, the mice with tumors were treated with the laser at 1st, 2nd, 5th, and 6th day independently. […] The fluorescence intensity of DCF-DA was quantified by Image J software. […]

[13] = tested on: subcutaneous OSC-3 tumor; assay: In vivo fluorescence imaging, tumor retention; design: species or system nude mice; conditions: intratumoral injection, 10 nmol per 50 mm^3
Excerpt: as §1
The subcutaneous tumor model was used in fluorescence imaging study in vivo of PA and PQC NFs. PA and PQC NFs (10 nmol per 50 mm^3 tumor) were administered by intratumoral injection. Fluorescence imaging were performed on a ChemiDoc™ MP imaging system (Bio-Rad, USA) at different time points post-injection.

[14] = tested on: OSC-3 cells; assay: Colocalization assay (MitoTracker, LysoTracker, CLSM); assay type: cell-based; conditions: 2 μM, 4 h
Description: OSC-3 cells were treated with PQC NFs (2 μM) for various times (from 5 min to 8 h) or with PA (2 μM) for 4 h, followed by incubation with LysoTracker Green (Thermo Fisher Scientific, USA) and MitoTracker Red (Cell Signaling Technology, USA) for 30 min. Cells were visualized on confocal laser scanning microscopy (CLSM) (Carl Zeiss, Germany) immediately to investigate the subcellular localization. Signals of PQC NPs and PA were observed on the Cy5 channel. LysoTracker and MitoTracker were observed according the manufacturer's instructions. The corresponding Pearson correlation coefficient was calculated by ImageJ software.

[15] = Characterization of PQC NFs (TEM, DLS); assay type: physicochemical
Description: Preparation and Characterization of PQC NFs: Briefly, PQC monomers in ethanol were added dropwise into deionized water under stirring. Ethanol in the solution was removed by vacuum rotary evaporation at 37° C. and the self-assembling PQC NFs were formed spontaneously. The aqueous nanofiber solution (0.02 mg mL^−1) was deposited on copper grids to prepare samples for transmission electron microscope (TEM). The morphology was observed by a Talos L120C TEM (Thermo Fisher Scientific, USA). The UV-Vis and fluorescence spectra were measured by a UV-Vis spectrometer (UV-1800, Shimadzu, Japan) and a fluorescence spectrometer (RF-6000, Shimadzu, Japan), respectively. NIR fluorescence imaging studies was performed by a ChemiDoc™ MP imaging system (Bio-Rad, USA). The ^1O2 production was detected using SOSG (Thermo Fisher Scientific, USA) as an indicator. Briefly, SOSG solution was added into drug solutions in 96 wells plate. […] Fluorescence intensity was determined by a microplate reader (Tecan, Switzerland). The ultrafiltration experiment of PQC NFs were conducted using a centrifuge (10k rpm, 10 min) and a centrifuge tube (10 kDa, Beckman Coulter, USA).

[16] = tested on: OSC-3 cells; assay: Apoptosis assay (Annexin V-APC/PI); assay type: cell-based
Description: Apoptosis assay was performed with the Annexin V-APC/propidium iodide (PI) apoptosis kit (Biolegend, USA). […] […] Cells were stained with the apoptosis kit according to the manufacturer's instructions. All samples of cells were collected for flow cytometry using a BD FACSCanto flow cytometer (BD, USA). Data analysis was accomplished using FlowJo software.

| Compound | tumorsphere formation [1] | CSC tumorsphere (with Stella cell) growth [2] | oxygen consumption rate (Mito stress test) [3] | H&E staining of tumors [5] | antitumor effect [5] | antitumor efficacy [5] | anticancer effect [6] | mitochondrial membrane potential change (JC-1) [7] | morphological changes in mitochondria (TEM) ([8]; with light) | also measured |
| --- | --- | --- | --- | --- | --- | --- | --- | --- | --- | --- |
| O=C(O)c1nn(Cc2ccc(Cl)cc2Cl)c2ccccc12 [LND, 1-(2,4-dichlorobenzyl)-1H-indazole-3-carboxylic acid] | limited inhibition | no effect | no significant impact on OCRs |  |  |  |  |  |  | IC50 ([4]; CSC, 72 h treatment, read-out: IC50): 30000 ± 2200 nM |
| Cc1cc(N)c2ccccc2[n+]1CCCCCCCCCC[n+]1c(C)cc(N)c2ccccc21 [DQA, dequalinium] |  |  |  | no significant cell death | did not show an obvious antitumor effect | did not show significant antitumor efficacy | did not show obvious anticancer effects | not effective enough to cause a signal change | morphologically changed mitochondria with and without light treatment | IC50 ([6]; OSC-3, absence of light, 24 h + 24 h): 3000 nM |
| Cc1cc(N)c2ccccc2[n+]1CCCCCCCCCCNC(=O)c1nn(Cc2ccc(Cl)cc2Cl)c2ccccc12 [LM] | blocked tumorsphere formation in CSCs | inhibits CSC tumorsphere (with Stella cell) growth | decrease in basal mitochondrial respiration and spare respiration capacity |  |  |  |  |  |  | cell growth [9]: inhibitory effects; mitochondrial membrane potential (JC-1) [10]: decreased Δψm; potency on other pancreatic tumor cells [11]: more potent than LND, m104, mixture of LND and m104; IC50 ([4]; 72 h): 460 ± 50 nM |
| pheophorbide a [PA] |  |  |  | only a small portion of tumor tissue showed apoptosis/necrosis | effectively inhibited tumor growth but did not shrink the tumors | did not show significant antitumor efficacy | did not show obvious anticancer effects | not effective enough to cause a signal change | only caused some mitochondrial swelling | cytotoxicity ([6]; OSC-3, absence of light): did not show cytotoxicity even at 100 uM; IC50 ([6]; OSC-3, light treatment 30 mW cm^-2 for 30 s, 633 nm): 2570 nM; ROS levels in tumors [12]: high at 24 h post-injection and decreased quickly at later time points; fluorescence within tumors over time [13]: nearly undetectable at the 4th day post-injection; subcellular colocalization [14]: low-level colocalization with mitochondria or lysosomes; morphological changes in mitochondria (TEM) ([8]; without light): healthy mitochondria; surface charge [15]: −11.5±1.3 mV; apoptosis induction ([16]; 0.2 μM, with light): failed to induce apoptosis; Annexin V positive population ([16]; 2 μM, 24 h, light, another 12 h): 19.3% |
